The source of these data is ChEMBL document CHEMBL3244077, “Sycnthesis of quinazoline analogues of folic acid modified at postion 10” (J Med Chem, 1977).

Data set [1] concerns L1210. As to the kind of experiment: Antitumor activity against mouse L1210 cells allografted in mouse assessed as increase in host survival at 200 mg/kg, ip administered as single dose on day 1 following tumor implantation. The class given is functional. The following applies: 24 h, route intraperitoneal.
A further data set relates to Mus musculus. As to the kind of experiment: Acute toxicity in mouse […] with mouse L1210 cells at 150 mg/kg, ip administered as single dose on day 1 following tumor implantation. Type of data set: organism-based. Set-up: dose 150 mg/kg, route intraperitoneal. The following applies: in vivo.
The test system of data set [2] is L1210. As to the kind of experiment: Antitumor activity against mouse L1210 cells allografted in mouse assessed as increase in host survival at 75 mg/kg, ip administered as single dose on day 1 following tumor implantation. The class given is functional. Particulars: 24 h, route intraperitoneal.
For data set [3], the system named is L1210. As to the kind of experiment: Antitumor activity against mouse L1210 cells allografted in mouse assessed as increase in host survival at 150 mg/kg, ip administered as single dose on day 1 following tumor implantation. Type of data set: functional. Particulars: 24 h, route intraperitoneal.
Data set [4] has as its system L1210. The data set can be described thus: Antitumor activity against mouse L1210 cells allografted in mouse assessed as increase in host survival at 50 mg/kg, ip administered as single dose on day 1 following tumor implantation. Type of data set: functional. Particulars: 24 h, route intraperitoneal.
The subject of data set [5] is L1210. The data set can be described thus: Antitumor activity against mouse L1210 cells allografted in mouse assessed as increase in host survival at 100 mg/kg, ip administered as single dose on day 1 following tumor implantation. The class given is functional. Particulars: 24 h, route intraperitoneal.
Data set [6] deals with L1210. The data set can be described thus: Antitumor activity against mouse L1210 cells allografted in mouse assessed as increase in host survival at 25 mg/kg, ip administered as single dose on day 1 following tumor implantation. Particulars: 24 h, route intraperitoneal. The class given is functional.

In the case of `Nc1nc(O)c2cc(COc3ccc(C(=O)N[C@@H](CCC(=O)O)C(=O)O)cc3)ccc2n1`, in the data set on L1210 [1], the survival at 200 mg/kg came out at 14%. Further, the Activity result in the data set on Mus musculus is on record as “Non-toxic”. In addition, the survival at 75 mg/kg in the data set with L1210 [2] amounted to 6%. Further, the survival at 150 mg/kg with L1210 [3] came to 28%.
For the compound `Nc1nc(O)c2cc(CCc3ccc(C(=O)N[C@@H](CCC(=O)O)C(=O)O)cc3)ccc2n1`, the survival at 50 mg/kg in the data set with L1210 [4] stood at 14%. Moreover, the Activity entry in the data set on Mus musculus is reported as “Non-toxic”. For the same compound, the survival at 75 mg/kg with L1210 [2] is 18%. In the data set with L1210 [3], the survival at 150 mg/kg amounted to 23%.
`Nc1nc(O)c2cc(CSc3ccc(C(=O)N[C@@H](CCC(=O)O)C(=O)O)cc3)ccc2n1`: in the data set with Mus musculus, the Activity result is recorded as “Non-toxic”. In addition, the survival at 100 mg/kg in the data set with L1210 [5] came to 9%. The survival at 150 mg/kg in the data set with L1210 [3] was 22%.
As to `CN(Cc1cnc2nc(N)nc(N)c2n1)c1ccc(C(=O)N[C@@H](CCC(=O)O)C(=O)O)cc1` [METHOTREXATE], the survival at 50 mg/kg in the data set on L1210 [4] amounted to 61%. In addition, the survival at 25 mg/kg in the data set on L1210 [6] came to 68%. Besides, in the data set on L1210 [5], the survival at 100 mg/kg is 81%. Moreover, the survival at 75 mg/kg in the data set with L1210 [2] amounted to 48%.
